Experimental data published in PMC6412891, “Synthesis and Biological Evaluation of Novel Thiazolyl-Coumarin Derivatives as Potent Histone Deacetylase Inhibitors with Antifibrotic Activity” (Molecules, 2019).

Columns and labels:
[1] = tested on: α-SMA expression in CFs; assay: α-SMA expression levels in cardiac fibroblasts, western blot; assay type: cell-based, rat; details: for α-SMA expression levels: 5 μM for 48 h, absence of TGF-β1, vs. control; for α-SMA expression levels induced by TGF-β1: derivatives 5 μM (TSA 0.1 μM) for 48 h in presence of TGF-β1
Experimental: For this purpose, a fixed concentration of 5a, 6a, 7a and 8a derivatives in the presence/absence of TGF–β1 (a strong inducer of CFs–to–CMFs differentiation), was studied, and α–SMA expression levels were measured by using the western blot technique. TSA was used as a control and also for comparative purposes.
(§1) For the analysis of the protein expression of histone H4–acetylated (ac–H4) and total H4 histone, a number of 1 × 10^6 of CFs seeded in 60 mm plates was used, which were incubated with the inhibitory compounds at a concentration of 10 μM, in the absence/presence of TGF–β1(5ng/mL) for 4 h. Subsequently, total histones were extracted by the technique of saline precipitation (high salt extraction). Briefly, CFs were scraped from the plates with 1 mL of cold PBS transferring their contents to Eppendorf tubes to be centrifuged for 60 s at 1500 rpm at 4 °C and re–suspended in 400 μL of cold buffer A (10 mM 4-(2-hydroxyethyl)-1-piperazineethanesulfonic acid-KOH (HEPES-KOH) adjusted to pH 7.9, 1.5 mM MgCl2, 10 mM KCl, 0.5 mM dithiothreitol and 0.2 mM phenylmethylsulfonyl fluoride (PMSF). The suspension is left on ice for 10 min and then placed in the vortex for 10 s. The samples were centrifuged for 60 s, subsequently discarding the supernatant fraction. The obtained pellet was re-suspended in 60 μL of cold C buffer (20 mM HEPES-KOH adjusted to pH 7.9, 25% glycerol, 420 mM NaCl, 1.5 mM MgCl2, 0.2 mM EDTA, dithiothreitol 0.5 mM and 0.2 mM PMSF) and placed on ice for 20 min for saline precipitation. Cell debris is removed by centrifugation for 120 s at 1500 rpm at 4 °C and the supernatant fraction, which contains the DNA binding proteins, is stored at minus 20 °C. For the analysis of α–SMA and procollagen type I expression levels, 3×10^5 CFs seeded in 35 mm plates were used, which were incubated together with inhibitor compounds at a 5 μM, in the absence/presence of TGF–β1 (5 ng/mL) for 48 h. To obtain the total proteins, the CFs were washed three times with cold PBS, then scraped and lysed with 50 μL of radio inmuno-precipitation assay (RIPA) lysis buffer (10 mM Tris–HCl pH 7.2, 5 mM EDTA, 150 mM NaCl, Triton X–100 1%, sodium dodecyl sulfate (SDS) 0.1%, deoxycholate 1%, leupeptin 2 μg/mL, aprotinin 10mM, PMSF 1mM and Na3VO4 100μM). The solution was centrifuged for 15 min at 10,000 rpm and at 4 °C. The supernatant fraction containing the total proteins was stored at minus 20 °C. The concentration of proteins obtained was determined by spectrophotometry at 570 nm, using the Bradford method (Bio-Rad, Hercules, CA, USA).
(§2) CFs proteins (25 μg), were subjected to 10% sodium dodecyl sulfate-polyacrylamide gel electrophoresis and finally transferred onto a nitrocellulose membrane (Millipore, Billerica, MA, USA). The membrane was washed twice with tris–buffered saline solution containing 0.1% Tween 20 (TBST). After being blocked with TBST containing 5% nonfat milk for 40 min, the membrane was incubated with primary antibodies in TBST/1% nonfat milk at 4 °C overnight. The membrane was washed three times with TBST for a total of 15 min and then incubated with primary antibodies (ac–H4, H4 total, α-SMA, procollagen type I and GAPDH). Then the membrane was incubated with goat anti–rabbit or anti-mouse IgG antibodies conjugated with horseradish (diluted 1:1000) for 1 h at room temperature. Signals were developed with ECL reagents and exposure to photographic film.
Figure 4 CTz non–substituted inhibit α-SMA expression in cardiac fibroblasts. (A) CFs were exposed to 5a, 6a, 7a and 8a at 5 μM for 48 h. […] (B) CFs were exposed to 5a, 6a, 7a and 8a at 5 μM for 48 h in presence of TGF–β1 ([…]). α-SMA expression levels were measured by western blot. GAPDH was used as control load.

[2] = tested on: procollagen type I expression in CFs; assay: Procollagen type I expression levels in cardiac fibroblasts, western blot; assay type: cell-based, rat; details: for procollagen type I expression levels: 5 μM for 48 h, absence of TGF-β1, vs. control; for procollagen type I expression levels induced by TGF-β1: derivatives 5 μM (TSA 0.1 μM) for 48 h in presence of TGF-β1
Experimental: In CFs collagen type I secretion is a hallmark of cardiac fibrosis development, which is regulated by HDACs. […] For this purpose, a fixed concentration of 5a, 6a, 7a and 8a derivatives in presence/absence of TGF-β1 were studied, and procollagen type I expression levels were measured by using the western blot technique. TSA was used as control and also for comparative purposes. In Figure 5 (A and B), in the upper panel representative photographs of procollagen type I expression level and GAPDH (used as charge control) are shown, whereas in the lower panel the graphic analyses are observed.
as §1, §2
Figure 5 CTz non–substituted inhibit procollagen type I expression levels in cardiac fibroblasts. […] (B) CFs were exposed to 5a, 6a, 7a and 8a at 5 μM for 48 h in presence of TGF–β1. Procollagen type I expression levels were measured by western blot. GAPDH was used as control load.

| Compound | α-SMA expression levels [1] | α-SMA expression levels induced by TGF-β1 [1] | procollagen type I expression levels [2] | procollagen type I expression levels induced by TGF-β1 [2] | melting point |
| --- | --- | --- | --- | --- | --- |
| O=C(CCCCC1CCSS1)Nc1nc(-c2cc3ccccc3oc2=O)cs1 (stereo not shown) [Compound 5a, 5-[1,2]-Dithiolan-3-yl-N-[4-(2-oxo-2H-chromen-3-yl)-thiazol-2-yl]-pentanamide] | decreased in a statistically significant manner | decrease close to control levels | decreased in a statistically significant manner | decreased, close to control levels | 91 to 92 °C |
| O=C(Nc1nc(-c2cc3ccccc3oc2=O)cs1)c1ccc(O)c(O)c1 [Compound 6a] | decreased in a statistically significant manner | decrease close to control levels | decreased in a statistically significant manner | decreased, close to control levels | – |
| O=C(CCCCC(=O)Nc1nc(-c2cc3ccccc3oc2=O)cs1)NO [Compound 8a, 5-[4-(2-Oxo-2H-chromen-3-yl)-thiazol-2-yl-carbamoyl]-N-hydroxypentanamide] | decreased in a statistically significant manner | decrease close to control levels | decreased in a statistically significant manner | decreased, close to control levels | 150 to 152 °C (dec.) |
| O=C(O)CCCCC(=O)Nc1nc(-c2cc3ccccc3oc2=O)cs1 [Compound 7a] | had no effect | – | had no effect | – | – |
